Source: patent US9687539B2, “CD4+ T survivin epitopes and uses thereof” (Commissariat a I'Energie Atomique, priority 2005, dated 2017)
No end group written: not given here.

Experiments:
[1] = molecular target: HLA-DR7 (DRB1*0701) (Homo sapiens, UniProt P01903+P01911, A100R/A102G/A103Q/D57E/D86V/E43K/F76Y/K127E/L162R/M171V/P40G/Q125H/Q99D/R33Q/R42Y/R54Q/S133A/S66F/T210M/V115G/Y107V/Y59L/Y89S); experiment: biochemical; conditions: competition with biotinylated tracer; 3 independent experiments; read-out: Binding activity DR7 (IC50)
[2] = system: survivin-specific CD4+ T lymphocyte lines; experiment: Response of CD4+ T lymphocyte lines to decreasing doses of peptide, IFN-γ ELISPOT; type: cell-based, human; conditions: 10^−5 to 10^−10 M peptide, autologous PBMCs; donors 174 and 188
Description: FIG. 4 illustrates the response of the survivin-specific CD4+ T lymphocyte lines to decreasing doses of peptide. Survivin-specific CD4+ T lymphocyte lines were obtained from PBMCs from two normal donors (174 and 188). The lines were incubated with decreasing concentrations (10^−5 to 10^−10 M) of peptide 17-31 (▴), 90-104 (▪), 93-107 (▪), 96-110 (Δ) or 128-142 (□), in the presence of 10^5 autologous PBMCs. The CD4+ T lymphocyte response was measured by IFN-γ ELISPOT.
The anti-IFN-γ human monoclonal antibody 1-D1K (MABTECH), diluted to 10 μg/ml in PBS buffer, was adsorbed onto nitrocellulose plates (Multiscreen HA; Millipore) for 1 hour at 37° C. The plates were subsequently washed with PBS and then saturated with complete IMDM medium (100 μl/well), for 1 h at 37° C. […] The immunoenzymatic revelation was stopped after approximately 10 minutes by thorough rinsing of the plates in water, and the colored spots were counted using an automatic reader (ELISPOT reader system, AID). […]
Finally, the sensitivity of the peptide recognition by the T lymphocytes was evaluated, in the presence of decreasing doses of peptide (FIG. 4). […]

[3] = molecular target: HLA-DRB5 (DRB5*0101) (Homo sapiens, UniProt P01903+Q30154); experiment: Competitive HLA II/peptide binding assay, HLA-DRB5; conditions: competition with biotinylated tracer; 3 independent experiments
[4] = molecular target: T1, HLA-DP401 (DP*0401) (Homo sapiens, UniProt P04440+P20036); experiment: biochemical; conditions: competition with biotinylated tracer; 3 independent experiments; read-out: Binding activity DP401 (IC50)
T1 sequence (P04440 30-258): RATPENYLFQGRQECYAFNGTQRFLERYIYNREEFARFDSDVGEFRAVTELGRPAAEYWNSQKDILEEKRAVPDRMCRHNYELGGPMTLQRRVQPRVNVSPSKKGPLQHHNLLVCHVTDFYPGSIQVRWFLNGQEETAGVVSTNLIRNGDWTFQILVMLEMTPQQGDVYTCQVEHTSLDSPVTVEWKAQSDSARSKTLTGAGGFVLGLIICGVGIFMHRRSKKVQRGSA
T1 sequence (P20036 29-260): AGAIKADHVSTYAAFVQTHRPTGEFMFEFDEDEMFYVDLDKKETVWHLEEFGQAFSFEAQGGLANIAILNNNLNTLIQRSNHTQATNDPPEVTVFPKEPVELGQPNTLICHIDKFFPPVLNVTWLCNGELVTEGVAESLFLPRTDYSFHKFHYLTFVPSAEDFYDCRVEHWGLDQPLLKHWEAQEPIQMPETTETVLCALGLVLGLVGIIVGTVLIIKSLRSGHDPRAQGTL

Row | Sequence | IC50 [1] [nM] | Peptide concentration at which CD4+ T lymphocyte lines are stimulated [2] | IC50 [3] [nM] | IC50 [4] [nM]
1 | HRISTFKNWPFLEGC [peptide 17-31, H R I S T F K N W P F L E G C] | 18 | 10^−10 M | 302 | 
2 | LTLGEFLKLDRERAK [peptide 96-110, L T L G E F L K L D R E R A K] |  |  |  | 2910
